Data: ChEMBL document CHEMBL3525943, “Regiospecific and stereospecific triangulation of the structures of metabolites formed by sequential metabolism at multiple prochiral centers” (Drug Metab Dispos, 2012)

What was measured:
Rattus norvegicus = assay: Total drug recovery in female Sprague-Dawley rat treated with [14C]-AMG 221 at 2 mg/kg, po measured over 48 hrs by liquid scintillation counting analysis; type: ADME, organism-based; design: dose 2 mg/kg, route oral; conditions: in vivo
[1] = Retention time of the compound in Sprague-Dawley rat urine treated with [14C]-AMG 221 at 2 mg/kg, po after 12 hrs by LC-MS/HPLC radiometric analysis; type: ADME, organism-based; design: dose 2 mg/kg, route oral; conditions: in vivo
[2] = Drug level in Sprague-Dawley rat urine treated with [14C]-(S)-2-((1R,2S,4R,5S)-5-hydroxybicyclo[2.2.1]heptan-2-ylamino)-5-isopropyl-5-methylthiazol-4(5H)-one at 5 mg/kg, po measured over 24 hrs by LC-MS/HPLC radiometric analysis; type: ADME, organism-based; design: dose 5 mg/kg, route oral; conditions: in vivo
[3] = Retention time of the compound in Beagle dog urine treated with [14C]-AMG 221 at 2 mg/kg, po measured over 24 hrs by LC-MS/HPLC radiometric analysis; type: ADME, organism-based, Canis lupus familiaris; design: dose 2 mg/kg, route oral; conditions: in vivo
[4] = Drug excretion in male Sprague-Dawley rat urine treated with [14C]-AMG 221 at 2 mg/kg, po measured over 24 hrs by LC-MS/HPLC radiometric analysis; type: ADME, organism-based; design: dose 2 mg/kg, route oral; conditions: in vivo
[5] = Drug excretion in male Sprague-Dawley rat feces treated with [14C]-AMG 221 at 2 mg/kg, po measured over 24 hrs by LC-MS/HPLC radiometric analysis; type: ADME, organism-based; design: dose 2 mg/kg, route oral; conditions: in vivo
[6] = Drug excretion in female Sprague-Dawley rat urine treated with [14C]-AMG 221 at 2 mg/kg, po measured over 24 hrs by LC-MS/HPLC radiometric analysis; type: ADME, organism-based; design: dose 2 mg/kg, route oral; conditions: in vivo
[7] = Drug excretion in female Sprague-Dawley rat feces treated with [14C]-AMG 221 at 2 mg/kg, po measured over 24 hrs by LC-MS/HPLC radiometric analysis; type: ADME, organism-based; design: dose 2 mg/kg, route oral; conditions: in vivo
Liver microsome [8] = assay: Retention time of the compound in rat liver microsomes treated with (S)-2-((1S,2S,4R)-bicyclo[2.2.1]heptan-2-ylamino)-5-((S)-1-hydroxypropan-2-yl)-5-methylthiazol-4(5H)-one at 20 uM preincubated for 5 mins followed by NADPH addition measured after 60 mins by LC-MS/MS analysis; type: ADME; conditions: 1 h
Liver microsome [9] = assay: Retention time of the compound in rat liver microsomes treated with [14C]-(S)-2-((1R,2S,4R,5S)-5-hydroxybicyclo[2.2.1]heptan-2-ylamino)-5-isopropyl-5-methylthiazol-4(5H)-one at 40 uM preincubated for 5 mins followed by NADPH addition measured after 60 mins by LC-MS/MS-radiometric analysis; type: ADME; conditions: 1 h
[10] = Retention time of the compound in bile duct cannulated Sprague-Dawley rat bile treated with [14C]-(S)-2-((1R,2S,4R,5S)-5-hydroxybicyclo[2.2.1]heptan-2-ylamino)-5-isopropyl-5-methylthiazol-4(5H)-one at 5 mg/kg, po measured over 48 hrs by LC-MS/HPLC radiometric analysis; type: ADME, organism-based; design: dose 5 mg/kg, route oral; conditions: in vivo
[11] = Retention time of the compound in Sprague-Dawley rat urine treated with [14C]-AMG 221 at 2 mg/kg, po measured over 24 hrs by LC-MS/HPLC radiometric analysis; type: ADME, organism-based; design: dose 2 mg/kg, route oral; conditions: in vivo
Plasma [12] = assay: Retention time of the compound in Beagle dog plasma treated with [14C]-AMG 221 at 2 mg/kg, po measured at 0.5 hrs by LC-MS/HPLC radiometric analysis; type: ADME, organism-based, Canis lupus familiaris; design: dose 2 mg/kg, route oral; conditions: in vivo
Liver microsome [13] = assay: Drug level in rat liver microsomes treated with (S)-2-((1S,2S,4R,6R)-6-hydroxybicyclo[2.2.1]heptan-2-ylamino)-5-isopropyl-5-methylthiazol-4(5H)-one at 20 uM preincubated for 5 mins followed by NADPH addition measured after 60 mins by LC-MS/MS analysis; type: ADME; conditions: 1 h
Liver microsome [14] = assay: Retention time of the compound in rat liver microsomes treated with ((S)-2-((1S,2S,4R)-bicyclo[2.2.1]heptan-2-ylamino)-5-(2-hydroxypropan-2-yl)-5-methylthiazol-4(5H)-one at 20 uM preincubated for 5 mins followed by NADPH addition measured after 60 mins by LC-MS/MS analysis; type: ADME; conditions: 1 h
Liver microsome [15] = assay: Retention time of the compound in rat liver microsomes treated with (S)-2-((1S,2S,4R)-bicyclo[2.2.1]heptan-2-ylamino)-5-(2-hydroxypropan-2-yl)-5-methylthiazol-4(5H)-one at 20 uM preincubated for 5 mins followed by NADPH addition measured after 60 mins by LC-MS/MS analysis; type: ADME; conditions: 1 h
[16] = Retention time of the compound in urine of bile duct cannulated Sprague-Dawley rat treated with [14C]-(S)-2-((1R,2S,4R,5S)-5-hydroxybicyclo[2.2.1]heptan-2-ylamino)-5-isopropyl-5-methylthiazol-4(5H)-one at 5 mg/kg, po measured over 48 hrs by LC-MS/HPLC radiometric analysis; type: ADME, organism-based; design: dose 5 mg/kg, route oral; conditions: in vivo
[17] = Plasma protein binding in human; type: ADME, cell-free; conditions: read-out: PPB (converted)
[18] = Plasma protein binding in rat; type: ADME, cell-free; conditions: read-out: PPB (converted)
[19] = Oral bioavailability in rat; type: ADME, organism-based; conditions: in vivo
[20] = Volume of distribution at steady state in rat; type: ADME, organism-based; conditions: in vivo, read-out: Vdss
[21] = Clearance in iv dosed rat; type: ADME, organism-based; conditions: in vivo
Plasma [22] = assay: Retention time of the compound in Sprague-Dawley rat plasma treated with [14C]-AMG 221 at 2 mg/kg, po measured at 0.5 hrs by LC-MS/HPLC radiometric analysis; type: ADME, organism-based; design: dose 2 mg/kg, route oral; conditions: in vivo

SMILES | Drug recovery (Rattus norvegicus) | Drug excretion [4] | Drug excretion [5] | Drug excretion [6] | Drug excretion [7] | Retention_time [11] | also measured
CC(C)[C@]1(C)SC(N[C@H]2C[C@H]3C[C@@H]2CC3=O)=NC1=O | 9.1% |  |  |  |  |  | Retention_time [1]: 33.3 min; Drug metabolism [2]: metabolite_detected
C[C@@H](C(=O)O)[C@]1(C)SC(N[C@H]2C[C@@H]3CC[C@H]2C3)=NC1=O | 0.5% |  |  |  |  |  | Retention_time [3]: 35.7 min
C[C@@H](CO)[C@]1(C)SC(N[C@H]2C[C@H]3C[C@@H]2C[C@@H]3O)=NC1=O | 2.9% | 8.3% | 8.3% | 24% | 24% |  | Retention_time (Liver microsome [8]): 11.5 min; Retention_time (Liver microsome [9]): 11.5 min
CC(C)[C@]1(C)SC(N[C@H]2C[C@H]3C[C@@H]2C[C@H]3O[C@@H]2O[C@H](C(=O)O)[C@@H](O)[C@H](O)[C@H]2O)=NC1=O | 0.2% |  |  |  |  |  | Retention_time [10]: 25.2 min
C[C@@H](CO)[C@]1(C)SC(N[C@H]2C[C@@H]3CC[C@H]2C3)=NC1=O | 0.8% | 29% | 29% | 37% | 37% |  | Retention_time [1]: 37.5 min
CC(C)[C@]1(C)SC(N[C@H]2C[C@H]3C[C@@H]2[C@H](O)[C@@H]3O)=NC1=O | 0.1% | 8.3% | 8.3% | 24% | 24% | 19.2 min | 
C=C(C)[C@]1(C)SC(N[C@H]2C[C@H]3C[C@@H]2C[C@@H]3O)=NC1=O | 0.8% |  |  |  |  | 27.9 min | 
C[C@H](CO)[C@]1(C)SC(N[C@H]2C[C@H]3C[C@@H]2CC3=O)=NC1=O | 0.1% |  |  |  |  | 9.2 min | 
C=C(C)[C@]1(C)SC(N[C@H]2C[C@@H]3CC[C@H]2C3)=NC1=O |  |  |  |  |  |  | Retention_time (Plasma [12]): 40.7 min
CC(C)[C@]1(C)SC(N[C@H]2C[C@H]3C[C@@H]2[C@H](O)C3)=NC1=O | 3.2% | 29% | 29% | 37% | 37% |  | Retention_time [1]: 33 min
CC(C)[C@]1(C)SC(N[C@H]2C[C@H]3C[C@@H]2C[C@H]3O)=NC1=O | 4.7% | 29% | 29% | 37% | 37% |  | Retention_time [1]: 30.9 min
CC(C)(O)[C@]1(C)SC(N[C@H]2C[C@H]3C[C@@H]2[C@H](O)C3)=NC1=O | 2.4% | 8.3% | 8.3% | 24% | 24% |  | Drug metabolism (Liver microsome [13]): metabolite_detected; Retention_time (Liver microsome [14]): 16.8 min
CC(O)(CO)[C@]1(C)SC(N[C@H]2C[C@@H]3CC[C@H]2C3)=NC1=O (stereo partly drawn) | 0.1% | 8.3% | 8.3% | 24% | 24% |  | Retention_time [3]: 31.5 min
C[C@H](C(=O)O)[C@]1(C)SC(N[C@H]2C[C@@H]3CC[C@H]2C3)=NC1=O |  |  |  |  |  | 25.8 min | 
C[C@H](CO)[C@]1(C)SC(N[C@H]2C[C@H]3C[C@@H]2C[C@@H]3O)=NC1=O | 1.2% | 8.3% | 8.3% | 24% | 24% | 7.2 min | Drug metabolism [2]: metabolite_detected
CC(C)(O)[C@]1(C)SC(N[C@H]2C[C@H]3C[C@@H]2C[C@@H]3O)=NC1=O |  | 8.3% | 8.3% | 24% | 24% |  | Retention_time (Liver microsome [9]): 11.5 min; Retention_time (Liver microsome [15]): 11.5 min
CC(C)(O)[C@]1(C)SC(N[C@H]2C[C@H]3C[C@@H]2C[C@H]3O)=NC1=O |  | 8.3% | 8.3% | 24% | 24% |  | Retention_time [16]: 12.8 min
C[C@H](CO)[C@]1(C)SC(N[C@H]2C[C@H]3C[C@@H]2C[C@H]3O)=NC1=O | 0.2% | 8.3% | 8.3% | 24% | 24% | 8.5 min | 
C[C@@H](CO)[C@]1(C)SC(N[C@H]2C[C@H]3C[C@@H]2C[C@H]3O)=NC1=O | 0.1% | 8.3% | 8.3% | 24% | 24% |  | Retention_time [16]: 12.8 min
C[C@H](CO)[C@]1(C)SC(N[C@H]2C[C@H]3C[C@@H]2[C@H](O)C3)=NC1=O | 0.1% | 8.3% | 8.3% | 24% | 24% | 9.9 min | 
CC(C)[C@]1(C)SC(N[C@H]2C[C@H]3C[C@@H]2C[C@@H]3O)=NC1=O | 24.2% | 17% | 17% | 24% | 24% |  | Retention_time [1]: 30.3 min
CC(C)[C@]1(C)SC(N[C@H]2C[C@@H]3CC[C@H]2C3)=NC1=O |  |  |  |  |  |  | fraction unbound [17]: 0.15; fraction unbound [18]: 0.15; bioavailability [19]: 30%; Vd [20]: 1 L/kg; clearance [21]: 50 mL/min/kg
CC(C)(O)[C@]1(C)SC(N[C@H]2C[C@@H]3CC[C@H]2C3)=NC1=O | 0.9% | 29% | 29% | 37% | 37% |  | Retention_time (Plasma [22]): 38.5 min
CC(C)(O)[C@]1(C)SC(N[C@H]2C[C@H]3C[C@@H]2CC3=O)=NC1=O |  |  |  |  |  | 20.7 min | 
C[C@@H](CO)[C@]1(C)SC(N[C@H]2C[C@H]3C[C@@H]2CC3=O)=NC1=O | 2.1% |  |  |  |  | 14.1 min | 
C[C@H](CO)[C@]1(C)SC(N[C@H]2C[C@@H]3CC[C@H]2C3)=NC1=O | 2.6% | 29% | 29% | 37% | 37% |  | Retention_time [1]: 34.6 min
CC(CO[C@@H]1O[C@H](C(=O)O)[C@@H](O)[C@H](O)[C@H]1O)[C@]1(C)SC(N[C@H]2C[C@@H]3CC[C@H]2C3)=NC1=O (stereo partly drawn) | 0.1% |  |  |  |  |  | Retention_time [3]: 27.8 min
C=C(C)[C@]1(C)SC(N[C@H]2C[C@H]3C[C@@H]2[C@H](O)C3)=NC1=O | 0.1% |  |  |  |  |  | Retention_time [3]: 29.9 min
